Converted amounts (≈) assume the structure as drawn.
What was measured:
[1] = system: S. aureus (AD3); assay: MIC and MBC, broth dilution, S. aureus AD3; format: cell-based; conditions: Staphylococcus aureus; S. aureus AD3 (clinical strain)
Procedure, shortened: (§1)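 Compounds, in 2.5% tween-80/2.5% DMSO, serially diluted in MH broth over 32–0.01 µg/mL with 5 × 10^5 CFU/mL inoculum, triplicates, 22–26 h at 37 °C; MIC = lowest concentration with no visible growth. MBC from plating non-turbid wells on MH agar, further 22–26 h at 37 °C.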

[2] = system: S. aureus (ATCC 29213); assay: MIC and MBC, broth dilution, S. aureus ATCC 29213; format: cell-based; conditions: Staphylococcus aureus, ATCC29213
Procedure, shortened: as §1

[3] = system: MRSA ATCC 43300; assay: Constant concentration time-kill curves; format: cell-based, Staphylococcus aureus; conditions: 2× MIC, in 9 h
Procedure: The time-kill curve experiments of compound 8 and compound 9 were performed according to a previous report in triplicate. The logarithmic phase of MRSA 43300 was diluted to about 10^6 CFU/mL with MH broth. […] All samples were shaken at 37 °C. Samples (100 μL) were taken at 0, 3, 6, 9 and 24 h from the mixtures. Each sample was diluted decuple continuously with sterile saline. Then, 20 μL of the diluted sample was plated on the sterile MH agar plate and incubated for 22–26 h at 37 °C. The total bacteria on the plates were counted as CFU/mL to calculate the bacterial colonies. The time-kill curve was constructed by scheming log10 CFU/mL of bacteria counts versus time.

[4] = system: MRSA ATCC 43300; assay: Post antibiotic effect (PAE)
[5] = system: MRSA; assay: Neutropenic murine thigh infection model; format: in vivo, mice
Procedure: The neutropenic murine thigh infection model experiment was performed as described in the literature. Six-week-old SPF-ICR female mice weighing 24–28 g were used for this study. The mice were injected with cyclophosphamide (Mead Johnson Pharmaceuticals, Evansville, Indiana—IN, USA) at a dose of 150 mg/kg 4 days and at a dose of 100 mg/kg 1 day before the experiment to reduce neutrophils and achieve immunosuppression (<0.1 × 10^9/L). A total of 0.1 mL MH broth (MRSA concentration approximately 10^7 CFU/mL) was injected into the posterior thigh of mice to establish the infection model. After the thighs of the mice were infected for 2 h, these mice were randomly divided into 3 groups (3 per group). […] A total of 24 h after the completion of the drug, the mice were euthanized and their thigh tissues were collected. Then, their thigh tissues were weighed and homogenized, respectively, in 3 mL of iced sterile saline. Tissue homogenate was serially diluted 10-fold and plated on MH agar. The resulting bacterial colonies were determined after incubation for 24 h.

[6] = system: methicillin-resistant S. aureus (ATCC 43300); assay: MIC and MBC, broth dilution, MRSA ATCC 43300; format: cell-based; conditions: Staphylococcus aureus
Procedure, shortened: as §1

- MIC [1]: 0.12 µg/mL (≈ 0.254 µM)
- melting point: 91 to 93 °C
- MIC [2]: 0.25 µg/mL (≈ 0.53 µM)
- MIC [6]: 0.06 µg/mL (≈ 0.127 µM)
Structure (SMILES): C=C[C@]1(C)C[C@@H](OC(=O)CNc2ccc(F)cc2)[C@]2(C)[C@H](C)CC[C@]3(CCC(=O)[C@H]32)[C@@H](C)[C@@H]1O [Compound 9, 22-(4-Fluoroanilineyl)-22-deoxypleuromutilin]
- MBC [1]: 0.5 µg/mL (≈ 1.06 µM)
- MBC [2]: 0.5 µg/mL (≈ 1.06 µM)
- MRSA killed (time-kill) [3]: 99.9%
- PAE ([4]; exposure to 2× MIC for 2 h): 1.54 h
- PAE ([4]; exposure to 4× MIC for 2 h): 1.71 h
- reduction of MRSA load in thigh compared with tiamulin ([5]; 20 mg/kg each, difference to tiamulin group): ~ 0.7 log10 CFU/mL
- reduction of MRSA load in thigh ([5]; 20 mg/kg intravenously, 24 h, compared to the no-drug control group): ~ 1.3 log10 CFU/mL
- MBC [6]: 0.25 µg/mL (≈ 0.53 µM)
